Test results from a melting point compilation (Tetko et al.; mined from patent text by program, amines drawn as free bases though some values may be those of a salt).

Row | melting point [°C] | Compound
1 | 97 to 99 | COC(=O)C(=O)c1ccc(OCCCc2ccc3ccccc3c2)cc1
2 | 135 to 136 | O=CNC1=NN(c2ccccc2)C(c2ccc(Cl)cc2)C1 (stereo not drawn)
3 | 129 to 130 | CCCc1nn(-c2ccc(C(F)(F)F)cn2)cc1COc1ccc(CCC(=O)O)c(C)c1
4 | 214 to 216 | CCCOc1ccccc1-c1nc2nc(NCC(F)(F)F)ncc2c(=O)[nH]1
5 | 225 to 233 | NC(=O)c1sc2nccc(N3CCN(C(c4ccccc4)c4ccccc4)CC3)c2c1N
6 | 220 to 222 | CC(C)c1cc(C=CC(=O)Nc2cccc(C(=O)O)c2)oc1C(C)C
7 | 233 to 235 | CCc1nc2c(N)nc3cccnc3c2n1CC1(O)CCN(C(=O)OC(C)(C)C)CC1
8 | 154 to 157 | O=C1C2CC(F)CCN2C(=O)N1c1ncc(Cl)cc1F (stereo not drawn)
9 | 116 to 118 | N#Cc1c(OCC(F)(F)F)nc(C2CC2)nc1N1CCc2ccccc2CC1
10 | 258 to 259 | CC1(C)C=C(c2c[nH]c(-c3ccc(F)cc3)c2-c2ccncc2)CC(C)(C)N1
11 | 159 to 160 | Cc1cccc(CC(=O)O)c1OCCCc1cn(-c2ccc(C(F)(F)F)cn2)nc1C(C)C
12 | 127 to 128 | CCN(CC)C1=C2N=c3cc(Cl)ccc3=C2Oc2ccccc2N1C
13 | 150 to 151 | O=C(O)CCC(=O)c1ccc(N2CCCCC2)cc1
14 | 183 to 184 | CC(C)(C)OC(=O)N1CCc2c(n(CCO)c3c(Cl)cc(Cl)cc23)CC1
15 | 176 to 177 | CCOC(=O)c1cc(NCc2ccccc2)c(NC2CCCCC2)c(S(N)(=O)=O)c1
16 | 72.5 to 74 | CC(C)Oc1cc(-n2nc(C(C)(C)C)oc2=O)ccc1F
17 | 134 to 140 | O=C(O)CCCCCCCCCCOc1cc(OCCCCCCCCCCC(=O)O)cc(C(=O)N(CC(=O)O)CC(=O)O)c1
18 | 112 to 115 | CCCOc1ccc(C)cc1C(N)=O
19 | 125 to 127 | C=CCOC(=O)Cc1cccc(NC(=O)NCNC(=O)c2ccccc2C(=O)c2ccccc2)c1
20 | 97 to 102 | COc1cccc(Cc2cc(Br)ccc2O)c1
21 | 57 to 58 | CCC(=O)C(CCCOc1ccc(OCCCC(C(=O)CC)C(=O)CC)cc1)C(=O)CC
22 | 198 | CC(C)(C)CC(C)(C)c1cc(Cc2cc(C(C)(C)CC(C)(C)C)cc(-n3nc4ccccc4n3)c2O)c(O)c(-n2nc3ccccc3n2)c1
23 | 70 to 72 | COC(=O)C(Cc1ccccc1)Oc1c(Br)cc(-c2ccc(-c3nc(-c4ccc(C(F)(F)F)cc4)oc3C)cc2)cc1Br (stereo not drawn)
24 | > 230 | CSc1nn2c(N)cc(Cl)nc2c1S(=O)(=O)c1ccccc1

Row | melting point [°C] | Compound
25 | 171 to 173 | CCOc1ccccc1C(=O)NCCN1CCC(O)(c2ccc(Cl)cc2)CC1
26 | 127 to 129 | CCOCc1nc2c(N)nc(C)c(C)c2n1CCOCCCc1cncnc1
27 | 145 to 164 | COc1ccc(N2CCN(c3c(C)c(C)c4c(c3C)CC(C)(CN3CCS(=O)(=O)CC3)O4)CC2)cc1 (stereo not drawn)
28 | 162 to 166 | COC(OC)(c1ccncc1)C(NC(=O)NCCCc1ccccc1)c1ccc(F)cc1 (stereo not drawn)
29 | 62 to 64 | CS(=O)(=O)c1ccc(/C(=C\C2CCCCC2)C(=O)O)cc1C(F)(F)F
30 | 120 | COc1ccc(C(=O)c2cc(-c3ccc(Cl)cc3)c(N3CCOCC3)s2)cc1
31 | 64 to 65 | O=C(C=C(Cl)Cl)c1cc(F)c(Cl)cc1Cl
32 | 60 | Cc1cc(C)cc(-c2cnn3c(-c4cccc(-c5nnn(CCN6CCCC6)n5)c4)ccnc23)c1
33 | 169 to 171 | CON=Cc1cc(NC(=O)N2CCOCN2)c(F)cc1Cl
34 | 248 to 249 | CC(=O)Oc1c(C(C)C)cc(NC(=O)Nc2cnc3c(C)cc(C)cc3c2-c2ccccc2Cl)cc1C(C)C
35 | 107 to 109 | CCCN(CCCNc1ncc(Cc2ccc(F)cc2)c(=O)[nH]1)c1ccccn1
36 | 162 to 163 | CC(=O)Oc1ccc2c(c1)Oc1ccccc1C2=C1C2CC3CC(C2)CC1C3
37 | 133 to 134 | COc1ccc(N2CCN(C(=O)CC3CCCc4ccccc43)CC2)cc1 (stereo not drawn)
38 | 89 to 90 | CCCCN(CCCC)CCCCCOc1ccc(S(=O)(=O)c2c(CC)cn3ccccc23)cc1
39 | 108 to 111 | COc1cc(C(=O)N2CCC(CCN3CCC(C(=O)c4nc5ccccc5[nH]4)CC3)(c3ccccc3)C2)cc(OC)c1OC (stereo not drawn)
40 | 98 to 100 | CCc1cccc(NC(=O)C(C#N)=C(C)N(C)C)c1
41 | 250 | CC1(C)OCC(c2nc3c(C(F)(F)F)cccc3c(O)c2C(=O)Nc2nccs2)O1 (stereo not drawn)
42 | 278 to 279 | CCc1nc2c([nH]1)C(=O)N1CCN=C1N2Cc1ccc(Cl)cc1
43 | 211 to 212 | CSc1nc(-c2ccc(S(C)(=O)=O)cc2)n(-c2ccc(C(C)C)cc2)c(=O)c1C#N
44 | 86 | NCC1COc2cc(F)cc(-c3ccccc3Cl)c2N1 (stereo not drawn)
45 | 91 to 92 | CCOC(=O)C(CC(=O)c1cccc(C(F)(F)F)c1)(NC(C)=O)C(=O)OCC
46 | 60 to 63 | CCCCCCCCCCCCS(=O)(=O)CCOc1ccc(C/C=C(\OC(=O)CC)C(F)(F)F)cc1
47 | 80 to 82 | CCCC[C@H](NC(=O)[C@H](CC(C)C)NC(=O)OCc1ccccc1)C(=O)CSC
48 | 65 to 70 | CC#CCOc1ccc(S(=O)(=O)N(C)C(C(=O)NO)c2ccc(OCCCNS(C)(=O)=O)cc2)cc1 (stereo not drawn)

Row | melting point [°C] | Compound
49 | 200 | CC(C)NC(=S)N1CCc2c(ncn2C)C1
50 | 221 to 225 | CC(C)(O)C1CCN(S(=O)(=O)c2cc(C#N)ccc2Oc2cc(Cl)ccc2Cl)CC1
51 | 111 to 113 | COc1cccc(C(O)(CC2CCNCC2)c2cccc(OC)c2)c1
52 | 160 to 162 | Cc1nc(-c2ccccc2)nc(NCC(=O)N(C)c2ccccc2)c1Br
53 | 87 to 90 | CC(C)(C)OC(=O)n1nnc(-c2ccccc2)c1I
54 | 172 | Cc1ccc(S(=O)(=O)n2c(CCCC(=O)O)cc3nc(Cl)ccc32)cc1
55 | 140 | CN(c1ccc(O)cc1)c1cc2ccc(Cl)cc2cn1
56 | 99 to 100 | Cc1oc(-c2ccccc2)nc1CCOc1ccc(CCCO)cc1
57 | 91 to 92 | Clc1ccc(C(c2ccc(Cl)cc2)n2ncnn2)cc1
58 | > 300 | O=C(Nc1cccc2c1C(=O)c1c-2n[nH]c1-c1ccc(C(=O)N2CCC[C@H]2CNc2ccccc2)s1)NN1CCOCC1
59 | 182 to 183 | CC(=O)Nc1ccc(I)cc1C
60 | 180 | COc1ccc2c(C(=O)O)cccc2c1
61 | 115 to 119 | O=C(OCC1OC(n2cnc3c(NOCc4ccccc4)nc(Cl)nc32)C(OC(=O)c2ccccc2)C1OC(=O)c1ccccc1)c1ccccc1 (stereo not drawn)
62 | 140 to 144 | COC(=O)[C@@H]1NC(=O)[C@@H]1NC(=O)OC(C)(C)C (relative stereo)
63 | 92 to 94 | C(=Nc1ccccn1)N(c1ccccc1)c1ccccc1
64 | > 250 | NCC1Cc2cc(-c3ccccc3)cc(-c3ccccc3)c2O1 (stereo not drawn)
65 | 42.4 to 43.8 | Cc1nc(Cl)c2c3c(oc2n1)CCCC3
66 | > 295 | OCc1c[nH]c2c1ccc1c3ccccc3[nH]c12
67 | 74 to 79 | COC(=O)C(=O)c1nsc(NC(=O)Oc2ccccc2)n1
68 | 55 to 56 | COC(=O)c1ncccc1NC(=O)C(C)CS (stereo not drawn)
69 | 174 to 175 | O=C(O)CCc1ccc(OCCCc2cc(-c3ccc(C(F)(F)F)cc3)no2)cc1
70 | 102 to 103 | O=S(CC#CCOc1ccccc1)c1ccc(Cl)cc1 (stereo not drawn)
71 | > 320 | O=C1CCC(c2ccc3nc(-c4ccncc4)[nH]c3c2)=NN1
72 | 98 to 120 | CCCC(=O)OCC(=O)C1(OC(C)=O)CCC2C3CC(C)C4=CC(=O)CCC4(C)C3C(O)CC21C (stereo not drawn)

Row | melting point [°C] | Compound
73 | 139 to 140 | COc1ccc(-c2cnc(N)c(SC)n2)cc1
74 | 130 to 132 | O=C(NC=CC1CC2C=CC1C2)n1cc(F)c(=O)[nH]c1=O (stereo not drawn)
75 | 112 to 113 | COC(=O)ON(C)C(=O)C(C)Nc1c([N+](=O)[O-])cc(C)cc1[N+](=O)[O-] (stereo not drawn)
76 | 229 to 230 | N=C(NO)c1ccc(-c2ccc(-c3ccc(C(=N)NO)o3)cc2)cc1
77 | 110 | CCNc1cncc(C#N)c1
78 | 195 to 198 | COc1ccc(S(=O)(=O)N2c3ccc(Br)cc3-c3ccccc3C2C(C)(C)C)cc1 (stereo not drawn)
79 | 165 to 167 | CCOC(=O)c1sc(-n2cn[nH]c2=O)nc1C
80 | 197 to 198 | O=C(CCc1cnoc1-c1ccc(Cl)cc1)Nc1cccnc1
81 | 63.5 | Nc1ccc(OC(F)(F)F)cc1
82 | 96 to 98 | O=c1cc(NCCN2CCN(c3ccc(F)cc3)CC2)cn[nH]1
83 | 207 to 208 | COc1ccc(NC(=O)/C(C)=C/c2ccc(C(F)(F)F)cc2)c(C(=O)O)c1
84 | 103 to 104 | CCOP(=O)(OCC)C(Nc1nccs1)P(=O)(OCC)OCC
85 | 148 to 149 | Oc1cncc(CCCOc2cccnc2Oc2cccc(Cl)c2)c1
86 | 143 to 145 | CCc1[nH]n(C2CCCC2)c2nc(Cc3ccc(OC(=O)c4ccc(CN(CC)CC)cc4)cc3)nc(=O)c1-2
87 | 101 to 104 | O=C(O)CSCc1ccc([N+](=O)[O-])cc1
88 | > 260 | COc1cc(NC(=O)Nc2cccc3c2C2CC(O)CCN2C3=O)nc2ccccc12 (stereo not drawn)
89 | 91 to 93 | CCN1C[C@@H](O)[C@H](N(C)C(=O)c2ccc(Cl)cc2)C1 (relative stereo)
90 | 158 to 161 | CNC(=O)c1ccc(Cl)cc1
91 | 70 to 73 | O=C1OC(COc2ccccc2)CN1CCCOc1ccc(CC2SC(=O)N(C(c3ccccc3)(c3ccccc3)c3ccccc3)C2=O)cc1 (stereo not drawn)
92 | 122 to 124 | COc1ccc2c(c1)Sc1ccc(SC)cc1C(O)C2 (stereo not drawn)
93 | 146 | O=C(Cc1ccc(Cl)cc1Cl)Nc1ccccc1

Row | Compound | melting point [°C]
94 | COC(=O)CCN(CC1CC2c3cccc4[nH]cc(c34)CC2N(C)C1)C(=O)NC(C)C (stereo not drawn) | 112 to 115
95 | CC(=NOC(=O)N(C)SC(Cl)(Cl)Cl)SCCC#N | 136 to 138
96 | NC(c1ccc2ccccc2c1)P(O)O (stereo not drawn) | 237 to 239
97 | Cc1cccc2c1C(=O)N1CC[C@H]1c1c(C(=O)OC3CCCCC3)ncn1-2 | 199 to 200
98 | O=C([O-])C12CC[N+](Cc3ccc4c(c3)Nc3nccnc3S4)(CC1)CC2 | 229 to 230
